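Protocol summary: plate cells (96-well), add compound at 5 concentrations, incubate 48 h, interpolate endpoints linearly. Abbreviation: GI50, concentration required for 50% inhibition of growth.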 The source made the active and inactive calls. No stated cut-off is given here; in the data, active = GI50 up to about 1.1 µM and inactive = higher.
Legend:
Experiment in all cases: NCI anticancer screen, dose series, 48 h
A549 = system: A549
HOP-92 = system: HOP-92
K562 = system: K562
MCF7 = system: MCF7
MDA-N = system: MDA-N
MOLT-4 = system: MOLT-4
NCI-H226 = system: NCI-H226
NCI-H522 = system: NCI-H522
RPMI-8226 = system: RPMI-8226
RXF 393 = system: RXF 393
SF-539 = system: SF-539
SK-MEL-5 = system: SK-MEL-5
SN12C = system: SN12C
SNB-19 = system: SNB-19
SNB-75 = system: SNB-75
U-251 = system: U-251
UACC-62 = system: UACC-62
UO-31 = system: UO-31
EKVX = system: EKVX
T47D = system: T47D

With O=C(NC1CCC(=O)N1C(=O)OCc1ccccc1)OCc1ccccc1 (stereo not drawn) the GI50 (A549) was > 100 µM (inactive), the GI50 (HOP-92) was > 100 µM (inactive) and the GI50 (K562) was > 100 µM (inactive). For the same compound, the GI50 (MCF7) was > 100 µM (inactive), the GI50 (MDA-N) was > 100 µM (inactive) and the GI50 (MOLT-4) was > 100 µM (inactive). The GI50 (NCI-H226) was > 100 µM (inactive), the GI50 (NCI-H522) was > 100 µM (inactive) and the GI50 (RPMI-8226) was > 100 µM (inactive). For the same compound, the GI50 (RXF 393) was > 100 µM (inactive), the GI50 (SF-539) was > 100 µM (inactive) and the GI50 (SK-MEL-5) was > 100 µM (inactive). The GI50 (SN12C) was > 100 µM (inactive), the GI50 (SNB-19) was > 100 µM (inactive) and the GI50 (SNB-75) was 77.6 µM (inactive). The GI50 (U-251) was > 100 µM (inactive), the GI50 (UACC-62) was > 100 µM (inactive) and the GI50 (UO-31) was > 100 µM (inactive).

N=C(N)SCc1cccc([N+](=O)[O-])c1 was tested, and the GI50 (A549) was 39.7 µM (inactive), the GI50 (EKVX) was 42.3 µM (inactive) and the GI50 (HOP-92) was 20.9 µM (inactive). The GI50 (K562) was 22.1 µM (inactive), the GI50 (MCF7) was 28.4 µM (inactive) and the GI50 (MOLT-4) was 32.7 µM (inactive). For the same compound, the GI50 (NCI-H226) was 24.3 µM (inactive), the GI50 (NCI-H522) was 13.5 µM (inactive) and the GI50 (RPMI-8226) was 22.8 µM (inactive). The GI50 (RXF 393) was 24.8 µM (inactive), the GI50 (SF-539) was 25.5 µM (inactive) and the GI50 (SK-MEL-5) was 32 µM (inactive). The GI50 (SN12C) was 37 µM (inactive), the GI50 (SNB-19) was > 10 µM (inactive) and the GI50 (SNB-75) was 30.3 µM (inactive). The GI50 (U-251) was 44.7 µM (inactive), the GI50 (UACC-62) was 39.5 µM (inactive) and the GI50 (UO-31) was 36.8 µM (inactive).

For CC(=O)Oc1cc2c(cc1OC(C)=O)OCC(c1ccc(C)cc1)C2 (stereo not drawn), the GI50 (A549) was 16 µM (inactive), the GI50 (EKVX) was 23.4 µM (inactive) and the GI50 (HOP-92) was 8.85 µM (inactive). For the same compound, the GI50 (K562) was 17.1 µM (inactive), the GI50 (MCF7) was 24.9 µM (inactive) and the GI50 (MOLT-4) was 7.19 µM (inactive). The GI50 (NCI-H226) was 27.1 µM (inactive), the GI50 (NCI-H522) was 2.64 µM (inactive) and the GI50 (RPMI-8226) was 11.6 µM (inactive). The GI50 (RXF 393) was 17.5 µM (inactive), the GI50 (SF-539) was 19.5 µM (inactive) and the GI50 (SK-MEL-5) was 6.12 µM (inactive). For the same compound, the GI50 (SN12C) was 18.1 µM (inactive), the GI50 (SNB-19) was 31.4 µM (inactive) and the GI50 (SNB-75) was 9.42 µM (inactive). For the same compound, the GI50 (U-251) was 9.91 µM (inactive), the GI50 (UACC-62) was 11.7 µM (inactive) and the GI50 (UO-31) was 20.6 µM (inactive).

With O=C1C=C(Nc2ccc(S(=O)(=O)Nc3ncccn3)cc2)c2ccccc2C1=O the GI50 (A549) was 25.3 µM (inactive), the GI50 (EKVX) was 24.7 µM (inactive) and the GI50 (HOP-92) was 33 µM (inactive). For the same compound, the GI50 (K562) was 15.6 µM (inactive), the GI50 (MOLT-4) was 48.5 µM (inactive) and the GI50 (NCI-H226) was 28.4 µM (inactive). For the same compound, the GI50 (NCI-H522) was 17.8 µM (inactive), the GI50 (RPMI-8226) was 37.6 µM (inactive) and the GI50 (RXF 393) was 23.3 µM (inactive). The GI50 (SF-539) was 27.3 µM (inactive), the GI50 (SK-MEL-5) was 18.2 µM (inactive) and the GI50 (SN12C) was 21.5 µM (inactive). For the same compound, the GI50 (SNB-19) was 31.2 µM (inactive), the GI50 (SNB-75) was 25.1 µM (inactive) and the GI50 (U-251) was 17.6 µM (inactive). For the same compound, the GI50 (UACC-62) was 17.9 µM (inactive) and the GI50 (UO-31) was 24 µM (inactive).

In the case of COc1ccc(C2=Nc3cc(C)c(C)cc3NC(c3ccccc3)C2)cc1 (stereo not drawn), the GI50 (A549) is reported as 44.7 µM (inactive), the GI50 (EKVX) is reported as > 100 µM (inactive) and the GI50 (HOP-92) is reported as 24.1 µM (inactive). For the same compound, the GI50 (K562) was 21.9 µM (inactive), the GI50 (MCF7) was 6.46 µM (inactive) and the GI50 (MOLT-4) was 16.3 µM (inactive). The GI50 (NCI-H226) was > 100 µM (inactive), the GI50 (NCI-H522) was 30.8 µM (inactive) and the GI50 (RPMI-8226) was 15.9 µM (inactive). The GI50 (RXF 393) was > 100 µM (inactive), the GI50 (SF-539) was > 100 µM (inactive) and the GI50 (SK-MEL-5) was 29.6 µM (inactive). For the same compound, the GI50 (SN12C) was > 100 µM (inactive), the GI50 (SNB-19) was > 100 µM (inactive) and the GI50 (T47D) was 21.7 µM (inactive). For the same compound, the GI50 (U-251) was > 100 µM (inactive), the GI50 (UACC-62) was > 100 µM (inactive) and the GI50 (UO-31) was 57 µM (inactive).

In the case of CC(=O)c1cc2ccccc2oc1=O [3-ACETYLCOUMARIN], the GI50 (A549) is reported as > 100 µM (inactive), the GI50 (EKVX) is reported as > 100 µM (inactive) and the GI50 (HOP-92) is reported as 48.8 µM (inactive). For the same compound, the GI50 (K562) was > 100 µM (inactive), the GI50 (MCF7) was 36.2 µM (inactive) and the GI50 (MDA-N) was > 100 µM (inactive). For the same compound, the GI50 (MOLT-4) was > 100 µM (inactive), the GI50 (NCI-H226) was > 100 µM (inactive) and the GI50 (NCI-H522) was > 100 µM (inactive). For the same compound, the GI50 (RPMI-8226) was > 100 µM (inactive), the GI50 (RXF 393) was > 100 µM (inactive) and the GI50 (SF-539) was > 100 µM (inactive). For the same compound, the GI50 (SK-MEL-5) was > 100 µM (inactive), the GI50 (SN12C) was > 100 µM (inactive) and the GI50 (SNB-19) was > 100 µM (inactive). The GI50 (SNB-75) was > 100 µM (inactive), the GI50 (U-251) was > 100 µM (inactive) and the GI50 (UO-31) was 92.3 µM (inactive).

In the case of c1cc2c3c(c1)c1cc4c(cc1c[n+]3CC2)OCO4 [ANHYDROLYCORINIUM CHLORIDE], the GI50 (A549) is reported as 1.15 µM (inactive), the GI50 (EKVX) is reported as 3.4 µM (inactive) and the GI50 (HOP-92) is reported as 25.3 µM (inactive). The GI50 (K562) was 4.47 µM (inactive), the GI50 (MCF7) was 6.25 µM (inactive) and the GI50 (MOLT-4) was 1.25 µM (inactive). The GI50 (NCI-H226) was 1.25 µM (inactive), the GI50 (NCI-H522) was 2.3 µM (inactive) and the GI50 (RPMI-8226) was 2.14 µM (inactive). For the same compound, the GI50 (RXF 393) was 6.12 µM (inactive), the GI50 (SF-539) was 2.48 µM (inactive) and the GI50 (SK-MEL-5) was 3.79 µM (inactive). For the same compound, the GI50 (SN12C) was 1.99 µM (inactive), the GI50 (SNB-19) was 1.17 µM (inactive) and the GI50 (SNB-75) was 2.44 µM (inactive). For the same compound, the GI50 (U-251) was 0.811 µM (active), the GI50 (UACC-62) was 5.85 µM (inactive) and the GI50 (UO-31) was > 127 µM (inactive).

CCCCCCCCCCCCCCCCCCOCC(O)CO (stereo not drawn) [BATILOL] was tested, and the GI50 (A549) was 4.32 µM (inactive), the GI50 (EKVX) was > 14.1 µM (inactive) and the GI50 (HOP-92) was 11.7 µM (inactive). For the same compound, the GI50 (K562) was > 22.4 µM (inactive), the GI50 (MCF7) was > 25 µM (inactive) and the GI50 (MOLT-4) was 17.2 µM (inactive). The GI50 (NCI-H226) was > 21.6 µM (inactive), the GI50 (NCI-H522) was 9.18 µM (inactive) and the GI50 (RPMI-8226) was 4.9 µM (inactive). For the same compound, the GI50 (RXF 393) was 16.7 µM (inactive), the GI50 (SF-539) was > 25 µM (inactive) and the GI50 (SK-MEL-5) was 2.07 µM (inactive). The GI50 (SN12C) was > 25 µM (inactive), the GI50 (SNB-19) was > 25 µM (inactive) and the GI50 (SNB-75) was 9.48 µM (inactive). The GI50 (U-251) was > 25 µM (inactive), the GI50 (UACC-62) was 21.7 µM (inactive) and the GI50 (UO-31) was 12.5 µM (inactive).
